Earlier results, collected in publication PMC8146789, “20-Hydroxyecdysone, from Plant Extracts to Clinical Use: Therapeutic Potential for the Treatment of Neuromuscular, Cardio-Metabolic and Respiratory Diseases” (Biomedicines, 2021).
Like-named read-outs stand apart in the source and are kept apart here.

Experiments:
[1] = oral; ref [127],[128]; cited from earlier work
C2C12 cells = tested on: C2C12 cells; parameters: method as in ref [103] = [103]; 103. Dilda P. Foucault A.S. Serova M. On S. Raynal S. Veillet S. Dioh W. Lafont R. BIO101, a drug candidate targeting Mas receptor for the treatment of age-reated muscle degeneration. From molecular t; details: C2C12 myotubes, ref [103], cited from earlier work
rats = tested on: rats; parameters: method as in ref [121] = [121]; 121. Ogawa S. Nishimoto N. Matsuda H. Pharmacology of ecdysones un vertebrates Invertebrate Endocrinology and Hormonal Heterophylly Burdette W.J. Springer Berlin, Germany 1974 341 344; details: ref [121]; cited from earlier work
[2] = parameters: method as in ref [174] = [174]; 174. Thole S.W. The Metabolic Syndrome: The Effects of β-ecdysone on Selected Body Parameters and Serum Lipids on the Metabolic Syndrome Ph.D. Thesis University of Göttingen Göttingen, Germany 2018; details: ref [174], cited from earlier work
Giardiasis = tested on: Giardiasis; parameters: method as in PMID 12224262; details: 5 mg 3× or 4×/day, 10 days; ref [167]; cited from earlier work
[3] = cited from earlier work; for dose dependence of plasma levels: increasing doses; for AUC0-t / Cmax / tmax: fasted; for AUC0-t / Cmax: n = 6, (SEM); for tmax: n = 6, (range)
ERα = tested on: ERα; parameters: method as in PMID 24974955; details: ref [54]; cited from earlier work
[4] = parameters: method as in doi:10.1055/s-0032-1320426; details: ref [171],[172], cited from earlier work
[5] = patients with metabolic syndrome
[6] = single oral 100 mg, ref [136],[137]
[7] = single oral 350 mg, ref [136],[137]
[8] = single oral 700 mg, ref [136],[137]
[9] = single oral 1400 mg, ref [136],[137]
[10] = slightly overweight persons, 200 mg daily

CC(C)(O)CC[C@@H](O)[C@](C)(O)[C@H]1CC[C@@]2(O)C3=CC(=O)[C@@H]4C[C@@H](O)[C@@H](O)C[C@]4(C)[C@H]3CC[C@]12C [20E, 2β,3β,14α,20R,22R,25-hexahydroxy-5β-cholest-7-en-6-one]
bioavailability [1]: ca. 1%
optimal concentration for anabolic effect on protein synthesis (C2C12 cells; 0.01–10 μM tested): 1 µM
protein synthesis stimulatory activity (C2C12 cells; 20E 0.01–10 μM, IGF-1 100 ng/mL): equally active as insulin-like growth factor-1 (IGF-1)
sex hormonal activity, anti-inflammatory or anabolic effects (rats): did not have
output of metabolic syndrome study ([2]; 40 or 90 mg/day, 3–6–9 months): Reductions in body mass, proportion of body fat, waist cicumference and hsCRP, retention of muscle mass
body parameters versus control group [2, 5]: continuous and significant loss of body mass, fat percentage, and waist diameter
effect on serum lipids [2, 5]: no significant effect on serum lipids
hsCRP level [2, 5]: marked reduction
patients with parasite elimination (Giardiasis): Parasite elimination in 68.7% of patients
safety profile, adverse events ([3]; humans, SAD 100 to 1400 mg, MAD up to 450 mg twice a day for 14 days, ref [180]): no serious adverse events during SAD and MAD
dose dependence of plasma levels ([3]; humans, oral, ref [136],[137]): dose-related and also apparently saturable
dose dependence of plasma levels ([3]; humans, oral, ref [136],[137], listed as BIO101): increased less that dose-proportionally
bioavailability ([3]; humans, oral, ref [180]): rather low
share of the urinary excretion within 4 h ([3]; humans, single dose, ref [136],[137]): half of this was excreted within 4 h
administered 20E excreted in the urine ([3]; humans, within 12 h of a single dose, ref [136],[137]): About 2%
serum biomarkers of muscular catabolism (myoglobin, CK-MB) ([3]; older adults, after 14 days of administration (MAD), ref [180]): reduced in subjects administered the highest dose
AUC0-t [3, 6]: 767 (31.1) ng·h/mL
Cmax [3, 6]: 141 (16.6) ng/mL
tmax [3, 6]: 2.03 (1.00–3.02) h
AUC0-t [3, 7]: 1924 (40.1) ng·h/mL
Cmax [3, 7]: 317 (37.9) ng/mL
AUC0-t [3, 8]: 2578 (22.9) ng·h/mL
Cmax [3, 8]: 399 (24.7) ng/mL
tmax [3, 8]: 3.00 (2.00–4.02) h
AUC0-t [3, 9]: 4148 (15.9) ng·h/mL
Cmax [3, 9]: 710 (20.2) ng/mL
tmax [3, 9]: 3.50 (2.00–4.02) h
activation of ERE reporter gene (ERα): could be activated dose dependently
output of trial in menopause disorders ([4]; overweight, 100 or 200 mg/day, 3 months): Prevention of metabolic syndrome and osteoporosis, reduction in body weight, reduction in plasma cholesterol and CRP; proposed for hormone replacement therapy
increase of HDL [4, 10]: 10.8%
reduction of LDL [4, 10]: 13.9%
reduction of serum cholesterol [4, 10]: 10.2%
reduction of triglycerides [4, 10]: 31.1%
reduction of waist circumference [4, 10]: 2.7 cm
